# From patent publication US12594276B2, “Inhibitors of human immunodeficiency virus replication” (ViiV Healthcare UK (No.5) Limited, priority 2024, dated 2026)
# Like-named read-outs stand apart in the source and are kept apart here.
# Columns and labels:
# [1] = tested on: recombinant NL4-3 virus (nef section replaced with Renilla luciferase gene) in MT-2 cells; test: HIV cell culture assay (antiviral activity, luciferase readout); type: cell-based; details: Renilla, NL43, MT-2 cells infected for 4-5 days with recombinant NL4-3 Renilla luciferase virus
# Experimental: HIV cell culture assay—MT-2 cells, 293T cells and the proviral DNA clone of NL4-3 virus were obtained from the NIH AIDS Research and Reference Reagent Program. MT-2 cells were propagated in RPMI 1640 media supplemented with 10% heat inactivated fetal bovine serum (FBS), […]. The 293T cells were propagated in DMEM media supplemented with 10% heat inactivated FBS, […]. A recombinant NL4-3 proviral clone, in which a section of the nef gene was replaced with the Renilla luciferase gene, was used to make the reference virus used in these studies. The recombinant virus was prepared through transfection of the recombinant NL4-3 proviral clone into 293T cells using Transit-293 Transfection Reagent from Mirus Bio LLC (Madison, WI). Supernatant was harvested after 2-3 days and the amount of virus present was titered in MT-2 cells using luciferase enzyme activity as a marker by measuring luciferase enzyme activity. Luciferase was quantitated using the EnduRen Live Cell Substrate from Promega (Madison, WI). Antiviral activities of compounds toward the recombinant virus were quantified by measuring luciferase activity in MT-2 cells infected for 4-5 days with the recombinant virus in the presence of serial dilutions of the compound.
# The 50% effective concentration (EC50) was calculated by using the exponential form of the median effect equation where (Fa)=1/[1+(ED50/drug conc.)m](Johnson V A, Byington R T. Infectivity Assay. In Techniques in HIV Research. ed. Aldovini A, Walker B D. 71-76. New York: Stockton Press. 1990). Curve fitting and analysis were performed with ActivityBase XE Runner software version 9.1.0.4 using model 203 (ID Business Solutions, LTD, Guildford, UK).
# [2] = Compound cytotoxicity, XTT-based colorimetric assay; type: cell-based; details: human
# Experimental: Compound cytotoxicity and the corresponding CC50 values were determined using the same protocol as described in the antiviral assay except that uninfected cells were used. Cytotoxicity was assessed on day 4 in uninfected MT2 cells by using an XTT (2,3-bis[2-Methoxy-4-nitro-5-sulfophenyl]-2H-tetrazolium-5-carboxyanilide inner salt)-based colorimetric assay (Sigma-Aldrich, St Louis, Mo).
# [3] = uninfected MT2 cells, day 4, XTT, read-out: CC50
Structure (SMILES),EC50 [1] [nM],CC50 at 4 days [2] [nM],"CC50 at 4 days [2, 3] [nM]"
"Cc1cc(C2CCC(F)(F)CC2)nc2nc([C@H](Cc3cc(F)cc(F)c3)NC(=O)Cn3nc(C4CC4)c4c3C[C@@H]3C[C@H]43)n(-c3ccc(Cl)c4c(NS(C)(=O)=O)nn(CCN5[C@@H]6CC[C@H]5COC6)c34)c(=O)c12 (atropisomer, axis not shown; (P)) [Example 6, N-[(1S)-1-[(3P)-3-(4-chloro-3-methanesulfonamido-1-{2-[(1R,5S)-3-oxa-8-azabicyclo[3.2.1]octan-8-yl]ethyl}-1H-indazol-7-yl)-7-(4,4-difluorocyclohexyl)-5-methyl-4-oxo-3H,4H-pyrido[2,3-d]pyrimidin-2-yl]-2-(3,5-difluorophenyl)ethyl]-2-[(2S,4S)-9-cyclopropyl-7,8-diazatricyclo[4.3.0.0^2,^4]nona-1(6),8-dien-7-yl]acetamide]",0.006,> 50,–
"Cc1cc(C2CCC(F)(F)CC2)nc2nc([C@H](Cc3cc(F)cc(F)c3)NC(=O)Cn3nc(C4CC4)c4c3C[C@@H]3C[C@H]43)n(-c3ccc(Cl)c4c(NS(C)(=O)=O)nn(CCN5C[C@H]6C[C@@H](C5)O6)c34)c(=O)c12 (atropisomer, axis not shown; (P)) [Example 7, N-[(1S)-1-[(3P)-3-(4-chloro-3-methanesulfonamido-1-{2-[(1R,5S)-6-oxa-3-azabicyclo[3.1.1]heptan-3-yl]ethyl}-1H-indazol-7-yl)-7-(4,4-difluorocyclohexyl)-5-methyl-4-oxo-3H,4H-pyrido[2,3-d]pyrimidin-2-yl]-2-(3,5-difluorophenyl)ethyl]-2-[(2S,4S)-9-cyclopropyl-7,8-diazatricyclo[4.3.0.0^2,^4]nona-1(6),8-dien-7-yl]acetamide]",0.009,> 50,–
"Cc1cc(C2CCC(F)(F)CC2)nc2nc([C@H](Cc3cc(F)cc(F)c3)NC(=O)Cn3nc(C4CC4)c4c3C[C@@H]3C[C@H]43)n(-c3ccc(Cl)c4c(NS(C)(=O)=O)nn(CCN5C[C@H]6C[C@@H]5CO6)c34)c(=O)c12 (atropisomer, axis not shown; (P)) [Example 9, N-[(1S)-1-[(3P)-3-(4-chloro-3-methanesulfonamido-1-{2-[(1R,4R)-2-oxa-5-azabicyclo[2.2.1]heptan-5-yl]ethyl}-1H-indazol-7-yl)-7-(4,4-difluorocyclohexyl)-5-methyl-4-oxo-3H,4H-pyrido[2,3-d]pyrimidin-2-yl]-2-(3,5-difluorophenyl)ethyl]-2-[(2S,4S)-9-cyclopropyl-7,8-diazatricyclo[4.3.0.0^2,^4]nona-1(6),8-dien-7-yl]acetamide]",0.009,–,> 50
"COCCNCCn1nc(NS(C)(=O)=O)c2c(Cl)ccc(-n3c([C@H](Cc4cc(F)cc(F)c4)NC(=O)Cn4nc(C5CC5)c5c4C[C@@H]4C[C@H]54)nc4nc(C5CCC(F)(F)CC5)cc(C)c4c3=O)c21 (atropisomer, axis not shown; (P)) [Example 10, N-[(1S)-1-[(3P)-3-(4-chloro-3-methanesulfonamido-1-{2-[(2-methoxyethyl)amino]ethyl}-1H-indazol-7-yl)-7-(4,4-difluorocyclohexyl)-5-methyl-4-oxo-3H,4H-pyrido[2,3-d]pyrimidin-2-yl]-2-(3,5-difluorophenyl)ethyl]-2-[(2S,4S)-9-cyclopropyl-7,8-diazatricyclo[4.3.0.0^2,^4]nona-1(6),8-dien-7-yl]acetamide]",0.06,–,> 50
"Cc1cc(C2(F)CCC(F)(F)CC2)nc2nc([C@H](Cc3cc(F)cc(F)c3)NC(=O)Cn3nc(C(F)F)c4c3C(F)(F)[C@@H]3C[C@H]43)n(-c3ccc(Cl)c4c(NS(C)(=O)=O)nn(CCN5C[C@H](F)C[C@H](F)C5)c34)c(=O)c12 (atropisomer, axis not shown; (P)) [Example 11, N-[(1S)-1-[(3P)-3-(4-chloro-1-{2-[(3R,5S)-3,5-difluoropiperidin-1-yl]ethyl}-3-methanesulfonamido-1H-indazol-7-yl)-5-methyl-4-oxo-7-(1,4,4-trifluorocyclohexyl)-3H,4H-pyrido[2,3-d]pyrimidin-2-yl]-2-(3,5-difluorophenyl)ethyl]-2-[(2S,4R)-9-(difluoromethyl)-5,5-difluoro-7,8-diazatricyclo[4.3.0.0^2,4]nona-1(6),8-dien-7-yl]acetamide]",0.009,–,> 20000
"Cc1cc(C2(F)CCC(F)(F)CC2)nc2nc([C@H](Cc3cc(F)cc(F)c3)NC(=O)Cn3nc(C4CC4)c4c3C[C@@H]3C[C@H]43)n(-c3ccc(Cl)c4c(NS(C)(=O)=O)nn(CCN5C[C@H](F)C[C@H](F)C5)c34)c(=O)c12 (atropisomer, axis not shown; (P)) [Example 12, N-[(1S)-1-[(3P)-3-(4-chloro-1-{2-[(3R,5S)-3,5-difluoropiperidin-1-yl]ethyl}-3-methanesulfonamido-1H-indazol-7-yl)-5-methyl-4-oxo-7-(1,4,4-trifluorocyclohexyl)-3H,4H-pyrido[2,3-d]pyrimidin-2-yl]-2-(3,5-difluorophenyl)ethyl]-2-[(2S,4S)-9-cyclopropyl-7,8-diazatricyclo[4.3.0.0^2,4]nona-1(6),8-dien-7-yl]acetamide]",0.012,–,> 20000
"Cc1cc(C2CCC(F)(F)CC2)nc2nc([C@H](Cc3cc(F)cc(F)c3)NC(=O)Cn3nc(C4CC4)c4c3C[C@@H]3C[C@H]43)n(-c3ccc(Cl)c4c(NS(C)(=O)=O)nn(CCN5CC(C)(C)OC(C)(C)C5)c34)c(=O)c12 (atropisomer, axis not shown; (P)) [Example 13, N-[(1S)-1-[(3P)-3-{4-chloro-3-methanesulfonamido-1-[2-(2,2,6,6-tetramethylmorpholin-4-yl)ethyl]-1H-indazol-7-yl}-7-(4,4-difluorocyclohexyl)-5-methyl-4-oxo-3H,4H-pyrido[2,3-d]pyrimidin-2-yl]-2-(3,5-difluorophenyl)ethyl]-2-[(2S,4S)-9-cyclopropyl-7,8-diazatricyclo[4.3.0.0^2,4]nona-1(6),8-dien-7-yl]acetamide]",0.011,–,> 20000
"Cc1cc(C2CCC(F)(F)CC2)nc2nc([C@H](Cc3cc(F)cc(F)c3)NC(=O)Cn3nc(C(F)F)c4c3C(F)(F)[C@@H]3C[C@H]43)n(-c3ccc(Cl)c4c(NS(C)(=O)=O)nn(CCN5CCCC(F)(F)C5)c34)c(=O)c12 (atropisomer, axis not shown; (P)) [Example 14, N-[(1S)-1-[(3P)-3-{4-chloro-1-[2-(3,3-difluoropiperidin-1-yl)ethyl]-3-methanesulfonamido-1H-indazol-7-yl}-7-(4,4-difluorocyclohexyl)-5-methyl-4-oxo-3H,4H-pyrido[2,3-d]pyrimidin-2-yl]-2-(3,5-difluorophenyl)ethyl]-2-[(2S,4R)-9-(difluoromethyl)-5,5-difluoro-7,8-diazatricyclo[4.3.0.0^2,^4]nona-1(6),8-dien-7-yl]acetamide]",0.009,–,> 50
"Cc1cc(C2CCC(F)(F)CC2)nc2nc([C@H](Cc3cc(F)cc(F)c3)NC(=O)Cn3nc(C(F)F)c4c3C(F)(F)[C@@H]3C[C@H]43)n(-c3ccc(Cl)c4c(NS(C)(=O)=O)nn(CCN5CCCC(F)(F)CC5)c34)c(=O)c12 (atropisomer, axis not shown; (P)) [Example 15, N-[(1S)-1-[(3P)-3-{4-chloro-1-[2-(4,4-difluoroazepan-1-yl)ethyl]-3-methanesulfonamido-1H-indazol-7-yl}-7-(4,4-difluorocyclohexyl)-5-methyl-4-oxo-3H,4H-pyrido[2,3-d]pyrimidin-2-yl]-2-(3,5-difluorophenyl)ethyl]-2-[(2S,4R)-9-(difluoromethyl)-5,5-difluoro-7,8-diazatricyclo[4.3.0.0^2,^4]nona-1(6),8-dien-7-yl]acetamide]",0.01,–,> 50
"Cc1cc(C2CCC(F)(F)CC2)nc2nc([C@H](Cc3cc(F)cc(F)c3)NC(=O)Cn3nc(C(F)F)c4c3C(F)(F)[C@@H]3C[C@H]43)n(-c3ccc(Cl)c4c(NS(C)(=O)=O)nn(CCN5CC(C)(C)OC(C)(C)C5)c34)c(=O)c12 (atropisomer, axis not shown; (P)) [Example 17, N-[(1S)-1-[(3P)-3-{4-chloro-3-methanesulfonamido-1-[2-(2,2,6,6-tetramethylmorpholin-4-yl)ethyl]-1H-indazol-7-yl}-7-(4,4-difluorocyclohexyl)-5-methyl-4-oxo-3H,4H-pyrido[2,3-d]pyrimidin-2-yl]-2-(3,5-difluorophenyl)ethyl]-2-[(2S,4R)-9-(difluoromethyl)-5,5-difluoro-7,8-diazatricyclo[4.3.0.0^2,^4]nona-1(6),8-dien-7-yl]acetamide]",0.012,–,> 50
